Several values for one entry are separate records, joined by “and”; a condition that tells them apart may be missing. Equal values may be shown once. After the bases stand the sugars from the 5' end (letter, count) and the backbone: PS all phosphorothioate, else s phosphorothioate and o phosphodiester by linkage. HELM strings list units from the 5' end as sugar, base in round brackets, then linkage (d deoxyribose, r ribose, m 2'-O-methyl, p phosphodiester). Methylation of C is not given here. [moe] = 2'-O-(2-methoxyethyl) (MOE); [cEt] = constrained ethyl (cEt); [sp] = phosphorothioate linkage; e = 2'-O-(2-methoxyethyl) (MOE); k = constrained ethyl (cEt); d = 2'-deoxy (DNA)
Legend:
[1] = biological target: KRAS; details: ASO
[2] = biological target: HBV; details: ASO, HepG2, 0.07 µM

Substance | target mRNA inhibition ([1]; A431, 2 µM) | other results
AAAAATTAATGTCTTG (sugars k3 d10 k3, PS) | 20% | 
AAAAGCTATTAGGAGT (sugars k3 d10 k3, PS) | 25% | 
AAATTAGTGATTAGGT (sugars k3 d10 k3, PS) | 5% | 
AACCATTCAAAGTTCA (sugars k3 d10 k3, PS) | 35% | 
AACGAGAATGGATATT (sugars k3 d10 k3, PS) | 4% | 
AAGGTAAAAGCTAACA (sugars k3 d10 k3, PS) | 21% | 
AAGTGTTTATGCAATG (sugars k3 d10 k3, PS) | 45% | 
AATAGTTTCCATTGCC (sugars k3 d10 k3, PS) | 56% | 
AATGTCACAAGCAGAA (sugars k3 d10 k3, PS) | 49% | 
AATTAATGTCTTGGCA (sugars k3 d10 k3, PS) | 12% | 
ACAGATTGTGCTGAGC (sugars k3 d10 k3, PS) | 46% | 
ACCAGTGTTAAGAGAA (sugars kkddddddddkekekk, PS) | 52% | 
ACCATTCAAAGTTCAC (sugars k3 d9 k3 e1, PS) | 42% | 
ACGAGAATGGATATTC (sugars k3 d10 k3, PS) | 29% | 
ACTAATAGCAGTGGAA (sugars k3 d10 k3, PS) | 27% | 
AGATATCCACAGCAGC (sugars k3 d10 k3, PS) | 58% | 
AGATGGTGTAACATAG (sugars k3 d10 k3, PS) | 39% | 
AGATTGTGCTGAGCTT (sugars k3 d9 k3 e1, PS) | 42% | 
AGATTGTGCTGAGCTT (sugars kddddddddddkekek, PS) | 7% | 
AGCTTGATCGAAGAGT (sugars k3 d10 k3, PS) |  | target mRNA inhibition ([1]; A431, 5 µM): 50%
AGGAGTCTTTATAGTA (sugars k3 d10 k3, PS) | 66% and 65% and 57% | target mRNA inhibition ([1]; A431, 0.185 µM): 14%; target mRNA inhibition ([1]; A431, 0.556 µM): 42%; target mRNA inhibition ([1]; A431, 1.667 µM): 58%; target mRNA inhibition ([1]; A431, 5 µM): 77%
AGGAGTCTTTATAGTA (sugars kkddddddddkekekk, PS) | 21% | 
AGTGATTAGGTCAAAT (sugars kkddddddddkekekk, PS) | 46% | 
AGTGTGACTCAGTTAA (sugars k3 d9 k3 e1, PS) | 15% | 
AGTGTGACTCAGTTAA (sugars kkddddddddddkeke, PS) | 41% | 

Substance | target mRNA inhibition ([1]; A431, 2 µM) | other results
AGTGTGACTCAGTTAA (sugars kkdddddddddkdkdk, PS) | 38% | 
AGTTTCACATAGCAAT (sugars k3 d10 k3, PS) | 38% | 
ATAATAATCCCCATTT (sugars k3 d10 k3, PS) | 4% | 
ATATCCACAGCAGCAG (sugars k3 d10 k3, PS) | 39% | 
ATCCATTTATGTGACT (sugars k3 d10 k3, PS) | 38% | 
ATCTTTTAATGTCACA (sugars k3 d10 k3, PS) | 58% | target mRNA inhibition ([1]; A431, 0.037 µM): 74%; target mRNA inhibition ([1]; A431, 5 µM): 97% and 96%; target mRNA inhibition ([1]; NCI-H460, 0.037 µM): 65.3%
ATGCTGTGAAACTCTC (sugars kddddddddddkekek, PS) | 18% | 
ATGCTGTGAAACTCTC (sugars kkddddddddddkeke, PS) | 35% | 
ATGCTGTGAAACTCTC (sugars kkddddddddkekekk, PS) | 25% | 
ATGCTGTGAAACTCTC (sugars kkkdddddddddkeke, PS) | 2% | 
ATGGTGTAACATAGGT (sugars kdddddddddkekeke, PS) | 39% | 
ATGGTGTAACATAGGT (sugars kkddddddddddkeke, PS) | 65% | target mRNA inhibition ([1]; A431, 0.185 µM): 22%; target mRNA inhibition ([1]; A431, 0.556 µM): 39%; target mRNA inhibition ([1]; A431, 1.667 µM): 60%; target mRNA inhibition ([1]; A431, 5 µM): 69%
ATGGTGTAACATAGGT (sugars kkdddddddddkekek, PS) | 53% | target mRNA inhibition ([1]; NCI-H460, 0.037 µM): 52.7%
ATGGTGTAACATAGGT (sugars kkkdddddddddkeke, PS) | 43% | 
ATGGTGTAACATAGGT (sugars kkkddddddddkdkdk, PS) | 36% | 
ATTACTTTTTGACAAA (sugars k3 d10 k3, PS) | 0% | 
ATTAGTGATTAGGTCA (sugars k3 d10 k3, PS) | 55% | target mRNA inhibition ([1]; A431, 0.185 µM): 2% and 25%; target mRNA inhibition ([1]; A431, 0.556 µM): 37%; target mRNA inhibition ([1]; A431, 1.667 µM): 47%; target mRNA inhibition ([1]; A431, 5 µM): 71%
ATTGTGCTGAGCTTGA (sugars kdddddddddkekeke, PS) | 18% | 
CAAGATGACACTAATA (sugars k3 d10 k3, PS) | 18% | 
CACTTCATTGTTTAAA (sugars k3 d10 k3, PS) | 12% | 
CAGACTTGAAAAGTGT (sugars k3 d10 k3, PS) | 24% | 
CAGTGTGACTCAGTTA (sugars kkddddddddddkeke, PS) | 51% | 
CAGTGTTAAGAGAACT (sugars kdddddddddkekeke, PS) | 40% | 
CATGCTGTGAAACTCT (sugars k3 d10 k3, PS) | 8% | 
CATTTCTGATGTGACT (sugars k3 d10 k3, PS) | 32% | 

Substance | target mRNA inhibition ([1]; A431, 2 µM) | other results
CCAGTGATACTTTCAC (sugars kkddddddddkekekk, PS) | 17% | 
CCAGTGTTAAGAGAAC (sugars kkddddddddddkeke, PS) | 42% | 
CCATGCTGTGAAACTC (sugars k3 d10 k3, PS) | 26% | 
CCATTCAAAGTTCACA (sugars k3 d9 k3 e1, PS) | 41% | 
CCATTCAAAGTTCACA (sugars k3 d10 k3, PS) | 42% | 
CCATTTATGTGACTAG (sugars kkddddddddkekekk, PS) | 0% | 
CCATTTATGTGACTAG (sugars kkkddddddddkekek, PS) | 36% | 
CTATTAGGAGTCTTTA (sugars k3 d10 k3, PS) | 34% | 
CTCTATGAAAGCTCAA (sugars k3 d10 k3, PS) | 39% | 
CTTGAAAAGTGTTTAT (sugars k3 d10 k3, PS) | 0% | 
CTTGATTTGTCAGCAG (sugars kkkddddddddkdkdk, PS) | 33% | 
CTTTTTGACAAATGGA (sugars k3 d10 k3, PS) | 22% | 
RNA1{[moe](T)[sp].[moe](G)[sp].[moe](A)[sp].[moe](A)[sp].d(G)[sp].d(C)[sp].d(G)[sp].d(A)[sp].d(A)[sp].d(G)[sp].d(T)[sp].d(G)[sp].d(C)[sp].[moe](A)[sp].[moe](C)[sp].[moe](A)}$$$$V2.0 |  | target mRNA inhibition [2]: 43% and 52%
RNA1{[moe](T)[sp].[moe](G)[sp].[moe](A)[sp].[moe](G)[sp].[moe](G)[sp].d(C)[sp].d(A)[sp].d(T)[sp].d(A)[sp].d(G)[sp].d(C)[sp].d(A)[sp].d(G)[sp].d(C)[sp].[moe](A)[sp].[moe](G)}$$$$V2.0 |  | target mRNA inhibition [2]: 48% and 51%
RNA1{[moe](T)[sp].[moe](G)[sp].[moe](A)[sp].[moe](G)[sp].d(G)[sp].d(C)[sp].d(A)[sp].d(T)[sp].d(A)[sp].d(G)[sp].d(C)[sp].d(A)[sp].d(G)[sp].[moe](C)[sp].[moe](A)[sp].[moe](G)[sp].[moe](G)}$$$$V2.0 |  | target mRNA inhibition [2]: 38% and 40%
RNA1{[moe](T)[sp].[moe](G)[sp].[moe](A)[sp].[moe](G)[sp].d(G)[sp].d(C)[sp].d(A)[sp].d(T)[sp].d(A)[sp].d(G)[sp].d(C)[sp].d(A)[sp].d(G)[sp].[moe](C)[sp].[moe](A)[sp].[moe](G)}$$$$V2.0 |  | target mRNA inhibition [2]: 56% and 53%
RNA1{[moe](T)[sp].[moe](G)[sp].[moe](A)[sp].d(G)[sp].d(G)[sp].d(C)[sp].d(A)[sp].d(T)[sp].d(A)[sp].d(G)[sp].d(C)[sp].d(A)[sp].d(G)[sp].[cEt](C)[sp].[cEt](A)[sp].[cEt](G)}$$$$V2.0 |  | target mRNA inhibition [2]: 59% and 61%
RNA1{[moe](T)[sp].[moe](G)[sp].[moe](C)[sp].[moe](A)[sp].[moe](G)[sp].d(A)[sp].d(G)[sp].d(G)[sp].d(T)[sp].d(G)[sp].d(A)[sp].d(A)[sp].d(G)[sp].d(C)[sp].[moe](G)[sp].[moe](A)[sp].[moe](A)}$$$$V2.0 |  | target mRNA inhibition [2]: 55% and 56%
RNA1{[moe](T)[sp].[moe](G)[sp].[moe](C)[sp].[moe](A)[sp].d(G)[sp].d(A)[sp].d(G)[sp].d(G)[sp].d(T)[sp].d(G)[sp].d(A)[sp].d(A)[sp].d(G)[sp].[moe](C)[sp].[moe](G)[sp].[moe](A)[sp].[moe](A)}$$$$V2.0 |  | target mRNA inhibition [2]: 68% and 58%
RNA1{[moe](T)[sp].[moe](G)[sp].[moe](C)[sp].[moe](A)[sp].d(G)[sp].d(A)[sp].d(G)[sp].d(G)[sp].d(T)[sp].d(G)[sp].d(A)[sp].d(A)[sp].d(G)[sp].[moe](C)[sp].[moe](G)[sp].[moe](A)}$$$$V2.0 |  | target mRNA inhibition [2]: 60% and 68%
RNA1{[moe](T)[sp].[moe](G)[sp].d(A)[sp].d(G)[sp].d(G)[sp].d(C)[sp].d(A)[sp].d(T)[sp].d(A)[sp].d(G)[sp].d(C)[sp].[moe](A)[sp].[moe](G)[sp].[moe](C)[sp].[moe](A)[sp].[moe](G)[sp].[moe](G)}$$$$V2.0 |  | target mRNA inhibition [2]: 73% and 72%
RNA1{[moe](T)[sp].[moe](T)[sp].[moe](C)[sp].[moe](C)[sp].[moe](G)[sp].d(C)[sp].d(A)[sp].d(G)[sp].d(T)[sp].d(A)[sp].d(T)[sp].d(G)[sp].d(G)[sp].d(A)[sp].[moe](T)[sp].[moe](C)}$$$$V2.0 |  | target mRNA inhibition [2]: 59% and 58%
RNA1{[moe](T)[sp].[moe](T)[sp].[moe](T)[sp].[moe](A)[sp].[moe](T)[sp].d(G)[sp].d(C)[sp].d(C)[sp].d(T)[sp].d(A)[sp].d(C)[sp].d(A)[sp].d(G)[sp].d(C)[sp].[moe](C)[sp].[moe](T)}$$$$V2.0 |  | target mRNA inhibition [2]: 53% and 37%
RNA1{[moe](T)[sp].[moe](T)[sp].[moe](T)[sp].d(A)[sp].d(T)[sp].d(G)[sp].d(C)[sp].d(C)[sp].d(T)[sp].d(A)[sp].d(C)[sp].d(A)[sp].[moe](G)[sp].[moe](C)[sp].[moe](C)[sp].[moe](T)}$$$$V2.0 |  | target mRNA inhibition [2]: 51% and 38%

Reference: the OligoGym collection
